Results on 20 compounds are retold here after US20250326753A1, “DUAL CXCR4-BTK INHIBITORS” (X4 Pharmaceuticals, Inc., priority 2022, published 2025).

In assay [1] the target is T1, CXCR4 (Homo sapiens, UniProt P61073). Kind of assay: Chemokine (CXCL12-AF647) binding inhibition assay, Jurkat cells expressing CXCR4. The conditions noted are these: CXCL12-AF647 25 ng/ml, read-out: IC50 CXCL-12 binding Jurkat. The method, then:
Jurkat cells expressing CXCR4 were washed once with assay buffer (Hanks' balanced salt solution with 20 mM HEPES buffer and 0.2% bovine serum albumin, pH 7.4) and then incubated for 15 min at room temperature with the test compounds diluted in assay buffer at dose-dependent concentrations. Subsequently, CXCL12-AF647 (25 ng/ml) was added to the compound-incubated cells. The cells were incubated for 30 min at room temperature. Thereafter, the cells were washed twice in assay buffer, fixed in 1% paraformaldehyde in PBS, and analyzed on the FL4 channel of a FACSCalibur flow cytometer equipped with a 635-nm red diode laser (Becton Dickinson, San Jose, CA, USA).
The percentages of inhibition of CXCL12-AF647 binding were calculated according to the formula: [1−((MFI−MFINC)/(MFIPC−MFINC))]×100 where MFI is the mean fluorescence intensity of the cells incubated with CXCL 12-AF647 in the presence of the inhibitor, MFINC is the mean fluorescence intensity measured in the negative control (i.e., autofluorescence of unlabeled cells), and MFIPC is the mean fluorescence intensity of the positive control (i.e., cells exposed to CXCL12-AF647 alone).

The target of assay [2] is T2, BTK (Bruton tyrosine kinase) (Homo sapiens, UniProt Q06187).
T2 construct: GST or His (the text leaves open which); purchased Reaction Biology Europe GmbH Lot 012,11; host or cells: Sf9 insect cells or E. coli (not resolved)
Kind of assay: BTK screening assay (33PanQinase Activity Assay, radiometric). The format is biochemical. The conditions noted are these: Inhibition of BTK, radiometric 33PanQinase Activity Assay, 3 μM ATP, 10 concentrations in singlicate, top 10 μM; read-out: 33PanQinase ® Radiometric IC50. The method, then: Inhibition of BTK activity was evaluated using a radiometric protein kinase assay (33PanQinase® Activity Assay) to measure the activity of BTK (Bruton tyrosine kinase).
Kinase assays were performed in 96-well ScintiPlates™ from Perkin Elmer (Boston, MA, USA) in a 50 μL reaction volume. The reaction cocktail was pipetted in four steps in the following order: 10 μL of non-radioactive ATP solution (in H2O); 25 μL of assay buffer/[γ-^33P]-ATP mixture; 5 μL of compound test sample in 10% DMSO; 10 μL of enzyme/substrate mixture.
BTK kinase was expressed in Sf9 insect cells or in E. coli as recombinant GST-fusion proteins or His-tagged proteins, either as full-length or enzymatically active fragments from human cDNAs, and purified by either GSH-affinity chromatography or immobilized metal. Purity was examined by SDS-PAGE/Coomassie staining, and identity confirmed by mass spectroscopy.
The reaction cocktails were incubated at 30° C. for 60 minutes. The reaction was stopped with 50 μL of 2% (v/v) H3PO4, plates were aspirated and washed two times with 200 μL 0.9% (w/v) NaCl. Incorporation of ^33Pi (counting of “cpm”) was determined with a microplate scintillation counter (Microbeta, Wallac).
The median value of the counts in wells containing assay buffer without enzyme, and without test compound was defined as “low control.” This value reflects unspecific binding of radioactivity to the plate in the absence of a protein kinase but in the presence of the substrate. The median value of the counts in wells containing assay buffer without test compound was defined as the “high control,” i.e. full activity in the absence of any inhibitor. The difference between high and low control was taken as 100% activity. Residual activity (in %) was calculated using the following formula: Res. Activity (%)=100×[(cpm of compound-low control)/(high control-low control)].
The fitting method used was a least-squares fit.

Assay [3] addresses T1, CXCR4. Kind of assay: Intracellular CXCL-12-induced calcium mobilization assay (FLIPR), U87.CXCR4 cells. The format is cell-based. Particulars: CXCL-12 25-50 ng/ml, read-out: IC50 CXCL-12 Ca2+ flux U87.CXCR4+. More on the design: expressed in transfected cells; host or cells: U87 (U87.CXCR4). The method, then:
Intracellular calcium mobilization induced by chemokines or chemokine-derived peptides were evaluated using a calcium responsive fluorescent probe and a FLIPR system. The CXCR-4 transfected U87 cell line (U87.CXCR4) cells were seeded in gelatine-coated black-wall 96-well plates at 20,000 cells per well and incubated for 12 hours. Cells were then loaded with the fluorescent calcium probe Fluo-2 acetoxymethyl at 4 μM final concentration in assay buffer (Hanks' balanced salt solution with 20 mM HEPES buffer and 0.2% bovine serum albumin, pH 7.4) for 45 min at 37° C. The intracellular calcium mobilization induced by the CXCL-12 (25-50 ng/ml) was then measured at 37° C. by monitoring the fluorescence as a function of time in all the wells simultaneously using a fluorometric imaging plate reader (FLIPR Tetra, Molecular Devices).
Background: Calcium assays in cells follow changes in intracellular calcium, usually with a dye or a luminescent sensor.

The target in the next assay is BTK (Homo sapiens, UniProt Q06187). As to the kind of experiment: BTK Kinase Enzyme System with ADP-Glo Kinase Assay. In kind it is biochemical. More on the design: Recombinant full-length human BTK was expressed by baculovirus in Sf9 insect cells; His (N); purchased Promega V9071; host or cells: Sf9 insect cells (baculovirus). The conditions noted are these: 50 μM ATP. The method, then:
Inhibition of BTK activity was evaluated using the BTK Kinase Enzyme System in combination with the ADP-Glo™ Kinase Assay Kit (V9071, Promega), according to manufacturer's instructions. Luminescence was detected on a PerkinElmer EnVision Multimode Plate Reader.
Recombinant full-length human BTK was expressed by baculovirus in Sf9 insect cells using an N-terminal His tag, MW ˜78 kDa. Substrate solution contained Poly (4:1 Glu, Tyr) Peptide Substrate. BTK Kinase Buffer consisted of: 40 mM Tris, pH 7.5; 20 mM MgCl2; 0.1 mg/ml BSA; 2 mM MnCl2; 50 μM DTT. ADP-Glo™ Reagents were thawed at ambient temperature; components of BTK Enzyme System, ADP and ATP were thawed on ice. Final assay conditions used 3 ng BTK, 50 μM ATP, and 0.2 mg/mL substrate. Compounds were tested at 11 dose points in duplicates, in 3-fold dilution with top concentration at 10 μM.
Assay performance was evaluated according to the reference compound Staurosporine, which was within 3-5 fold of published results and between different tests, with a Z′ value larger than 0.5, where applicable.
On the technique in general: ADP-Glo turns the ADP formed in a reaction into a luminescent signal.

T2 sequence (Q06187 whole entry): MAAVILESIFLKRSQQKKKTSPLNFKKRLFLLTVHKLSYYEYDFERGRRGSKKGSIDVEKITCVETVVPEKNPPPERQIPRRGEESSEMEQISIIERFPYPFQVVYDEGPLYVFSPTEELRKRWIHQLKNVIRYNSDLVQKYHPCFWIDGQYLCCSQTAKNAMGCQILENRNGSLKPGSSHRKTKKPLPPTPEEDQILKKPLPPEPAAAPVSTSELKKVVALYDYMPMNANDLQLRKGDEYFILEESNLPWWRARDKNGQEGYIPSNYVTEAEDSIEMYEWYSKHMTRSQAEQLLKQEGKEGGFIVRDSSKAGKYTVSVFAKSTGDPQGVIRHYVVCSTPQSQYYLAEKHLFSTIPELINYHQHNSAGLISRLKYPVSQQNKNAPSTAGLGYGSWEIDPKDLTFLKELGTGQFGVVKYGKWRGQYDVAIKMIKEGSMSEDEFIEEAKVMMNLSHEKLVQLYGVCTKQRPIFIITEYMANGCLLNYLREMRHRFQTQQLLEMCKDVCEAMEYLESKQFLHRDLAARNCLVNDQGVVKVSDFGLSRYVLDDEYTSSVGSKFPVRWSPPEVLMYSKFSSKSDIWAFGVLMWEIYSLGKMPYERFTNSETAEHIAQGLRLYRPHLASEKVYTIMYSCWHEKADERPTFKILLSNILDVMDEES
BTK, sequence (Q06187 whole entry): as above
T1 sequence (P61073 whole entry): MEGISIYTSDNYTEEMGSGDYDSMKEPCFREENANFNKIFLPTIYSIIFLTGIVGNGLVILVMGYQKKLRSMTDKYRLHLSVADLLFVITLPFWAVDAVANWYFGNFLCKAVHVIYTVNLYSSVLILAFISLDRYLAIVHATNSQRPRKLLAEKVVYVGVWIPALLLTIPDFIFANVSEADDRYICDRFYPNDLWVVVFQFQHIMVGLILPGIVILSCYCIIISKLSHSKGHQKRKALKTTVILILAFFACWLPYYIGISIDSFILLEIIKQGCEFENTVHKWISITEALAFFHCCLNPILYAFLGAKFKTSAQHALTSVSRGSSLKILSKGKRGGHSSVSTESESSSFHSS

In the case of `Cc1cccnc1[C@H]1CCC[C@@H](c2ncccc2C)N1CCCCNC(=O)c1cc2c(-c3ccc(CNC(=O)c4ccc(C(C)(C)C)cc4)cc3)ncnc2[nH]1` [Compound I-1], the half-inhibitory concentration (IC50) was 1 to 100 nM on CXCR4 [1], 100 to 1000 nM in assay [2], > 2500 nM at CXCR4 [3] and 100 to 1000 nM at BTK.
On to `Cc1cccnc1[C@H]1CCC[C@@H](c2ncccc2C)N1CCCCN(C)C(=O)c1cc2c(-c3ccc(CNC(=O)c4ccc(C(C)(C)C)cc4)cc3)ncnc2[nH]1` [Compound I-2], for which the IC50 is 1 to 100 nM on CXCR4 [1], 1000 to 2500 nM in assay [2], > 2500 nM on CXCR4 [3] and 1000 to 2500 nM at BTK.
As for `Cc1cc(-c2ncnc3[nH]c(C(=O)NCCN4[C@@H](c5ncccc5C)CCC[C@H]4c4ncccc4C)cc23)ccc1CNC(=O)c1ccc(C(C)(C)C)cc1` [Compound I-3], the IC50 at CXCR4 [1] is 100 to 1000 nM; in assay [2] it was 1 to 100 nM; at CXCR4 [3], > 2500 nM; at BTK it was 1 to 100 nM.
Consider `Cc1cc(-c2ncnc3[nH]c(C(=O)NCCCN4[C@@H](c5ncccc5C)CCC[C@H]4c4ncccc4C)cc23)ccc1CNC(=O)c1ccc(C(C)(C)C)cc1` [Compound I-4], for which the IC50 on CXCR4 [1] is 1 to 100 nM; in assay [2] it was 1 to 100 nM; at CXCR4 [3] it was > 2500 nM; at BTK, 1 to 100 nM.
On to `Cc1cc(-c2ncnc3[nH]c(C(=O)N(C)CCCN4[C@@H](c5ncccc5C)CCC[C@H]4c4ncccc4C)cc23)ccc1CNC(=O)c1ccc(C(C)(C)C)cc1` [Compound I-5], for which the IC50 on CXCR4 [1] is 100 to 1000 nM; in assay [2], 100 to 1000 nM; at CXCR4 [3], > 2500 nM; on BTK, 100 to 1000 nM.
For `Cc1cccnc1[C@H]1CCC[C@@H](c2ncccc2C)N1CCNC1CN(C(=O)c2ccc(-c3cc4c(-c5cccc(NC(=O)c6cccc(C(C)C)c6)c5C)ncnc4[nH]3)cc2)C1` [Compound I-36], the half-inhibitory concentration (IC50) at CXCR4 [1] was in the range of 1 to 100 nM; in assay [2] it was 1000 to 2500 nM; on CXCR4 [3], 100 to 1000 nM.
In the same order, the values of `Cc1cccnc1[C@H]1CCC[C@@H](c2ncccc2C)N1CCNC1CN(C(=O)c2ccc(-c3cc4c(-c5cccc(NC(=O)c6ccc(C(F)(F)F)cc6)c5C)ncnc4[nH]3)cc2)C1` [Compound I-37] are 1 to 100 nM, 100 to 1000 nM and 1 to 100 nM.
On the same counts, the results for `Cc1cc(-c2ncnc3[nH]c(C(=O)NCCCN4[C@@H](c5ncccc5C)CCC[C@H]4c4ncccc4C)cc23)ccc1CNC(=O)c1ccc(C(C)C)cc1` [Compound I-38] are 1 to 100 nM, 1 to 100 nM and 100 to 1000 nM.
On the same counts, the results for `Cc1cc(-c2ncnc3[nH]c(C(=O)NCCCN4[C@@H](c5ncccc5C)CCC[C@H]4c4ncccc4C)cc23)ccc1CNC(=O)c1cccc(C(C)C)c1` [Compound I-39] are 1 to 100 nM, 100 to 1000 nM and > 2500 nM.
Regarding `Cc1cc(-c2ncnc3[nH]c(C(=O)NCCCN4[C@@H](c5ncccc5C)CCC[C@H]4c4ncccc4C)cc23)ccc1CNC(=O)c1ccc(C(F)(F)F)cc1` [Compound I-40], the IC50 on CXCR4 [1] was 1 to 100 nM; in assay [2], 1 to 100 nM; at CXCR4 [3], > 2500 nM.
For the compound `COC1CN(C(=O)NCc2ccc(-c3ccnc(Nc4cnn(CCN5[C@@H](c6ncccc6C)CCC[C@H]5c5ncccc5C)c4)n3)cc2C)C1` [Compound I-41], the figures for the IC50 (on CXCR4 [1]; in assay [2]; at CXCR4 [3]) were 1 to 100 nM, 1 to 100 nM and > 2500 nM, respectively.
Take `Cc1cc(-c2ccnc(Nc3cnn(CCN4[C@@H](c5ncccc5C)CCC[C@H]4c4ncccc4C)c3)n2)ccc1CNC(=O)N1CC(OC(C)(C)C)C1` [Compound I-42]: the IC50 was in the range of 1 to 100 nM at CXCR4 [1], 1 to 100 nM in assay [2] and 100 to 1000 nM at CXCR4 [3].
In the case of `Cc1cc(-c2ccnc(Nc3cnn(CCN4[C@@H](c5ncccc5C)CCC[C@H]4c4ncccc4C)c3)n2)ccc1CNC(=O)N1CC(OC(F)(F)F)C1` [Compound I-43], the IC50 lay within 1 to 100 nM at CXCR4 [1], 1 to 100 nM in assay [2] and 100 to 1000 nM on CXCR4 [3].
With `Cc1cc(-c2ncnc3[nH]c(C(=O)NCCCCN4[C@@H](c5ncccc5C)CCC[C@H]4c4ncccc4C)cc23)ccc1CNC(=O)c1ccc(C(C)C)cc1` [Compound I-44], the values for the IC50 (on CXCR4 [1]; in assay [2]; at CXCR4 [3]) were 1 to 100 nM, 1 to 100 nM and 100 to 1000 nM, respectively.
Take `Cc1cc(-c2ncnc3[nH]c(C(=O)NCCCCN4[C@@H](c5ncccc5C)CCC[C@H]4c4ncccc4C)cc23)ccc1CNC(=O)c1cccc(C(C)C)c1` [Compound I-45]: the figures for the IC50 (on CXCR4 [1]; in assay [2]; at CXCR4 [3]) were 1 to 100 nM, 1 to 100 nM and 1000 to 2500 nM, respectively.
Consider `Cc1cc(-c2ncnc3[nH]c(C(=O)NCCCCN4[C@@H](c5ncccc5C)CCC[C@H]4c4ncccc4C)cc23)ccc1CNC(=O)c1ccc(C(F)(F)F)cc1` [Compound I-46], for which the values for the IC50 (at CXCR4 [1]; in assay [2]; at CXCR4 [3]) were 1 to 100 nM, 1 to 100 nM and 100 to 1000 nM, respectively.
On to `Cc1cccnc1[C@H]1CC(Cn2cc(-c3ccc(Oc4ccccc4)cc3)c3c(N)ncnc32)C[C@@H](c2ncccc2C)N1CCCCN` (some centres unmarked) [Compound I-61], for which the IC50 (at CXCR4 [1]; in assay [2]; at CXCR4 [3]) was > 2500 nM in each case.
For the compound `Cc1cccnc1[C@H]1CCC[C@@H](c2ncccc2C)N1CCn1cc(-c2ccc(Oc3ccccc3)cc2)c2c(N)ncnc21` [Compound I-63], the IC50 was 1000 to 2500 nM on CXCR4 [1], > 2500 nM in assay [2] and > 2500 nM on CXCR4 [3].
On to `Cc1cccnc1[C@H]1CCC[C@@H](c2ncccc2C)N1CCCn1cc(-c2ccc(Oc3ccccc3)cc2)c2c(N)ncnc21` [Compound I-64], for which the IC50 (at CXCR4 [1]; in assay [2]; at CXCR4 [3]) was > 2500 nM each time.
Turning to `Cc1cc(-c2ccnc(Nc3cnn(CCN4CCCCC4c4ncccc4C)c3)n2)ccc1CNC(=O)N1CC(OC(C)C)C1` (centres unmarked) [Compound I-66], the results for the IC50 (on CXCR4 [1]; in assay [2]; at CXCR4 [3]) were > 2500 nM, 1 to 100 nM and > 2500 nM, respectively.

The IC50 is the concentration needed to halve the response being measured.
